Measurements from patent US20050159476A1, “Pharmaceutical composition for preventing or treating respiratory disease” (Chugai Seiyaku Kabushiki Kaisha, priority 2002, published 2005).
Read-outs that look alike come from different tables or passages of the source.

Legend:
Format in all cases: cell-based
[1] = system: normal human bronchial/tracheal epithelial cells (NHBE w/RA); assay: Protective effect against cell injury induced by oxidized LDL in normal human bronchial/tracheal epithelial cells (LDH leakage); conditions: 24 h, average ± standard error; for inhibition at 3 µM: 3 μmol/L test compound; for inhibition at 30 µM: 30 μmol/L test compound
Experimental: (§1) Oxidized LDL was prepared by maintaining 1 mg/mL of rabbit LDL at 37° C for 24 hours in PBS (-) containing 10 μmol/L CUSO4.
(§2) These cells were dispersed in F12K medium containing 10% FBS and plated on a 24-well plate at 2.5×10^4 cells/500 μL/well. These cells were incubated at 37° C. for 18 hours and then the medium was replaced by F12K medium containing 2% FBS. At this time, 2.5 μL of a solution or a suspension of each test compound in ethanol was added at the concentrations of the test compound of 3 μmol/L and 30 μmol/L in each well.
(§3) After incubation at 37° C. for 6 hours, 50 μL of a suspension of oxidized LDL was added per well at the concentration of oxidized LDL of 100 μg/mL in each well.
(§4) After incubation at 37° C. for 24 hours, 200 μL of the supernatant was collected from each well and the amount of lactate dehydrogenase (LDH) leaked from cells was determined by the SFBC method.
(§5) Further test was carried out in the same manner as the above test with the exception that each test compound was added to the cell culture after incubation for 6 hours following medium replacement and immediately before oxidized LDL was added thereto rather than when the medium was replaced with F12K medium containing 2% FBS.
(§6) Higher LDH levels in the supernatant indicate that greater cell injury is induced by oxidized LDL. Separately, one experiment was carried out using a well in the same manner as the above test with the exception that no test compound was added to the well. The level of LDH in this well was defined as 0% cell protection. In addition, other experiment was carried out using another well without adding either test compound or oxidized LDL but with adding saline instead. The level of LDH in this well was defined as 100% cell protection. These levels of LDH were used for calculating cell protection of each test compound used in the above test.
This test example was carried out in a similar manner to test example 1 except that human A549 cells were replaced with normal human bronchial/tracheal epithelial cells (NHBE w/RA: BioWhittaker Co.), cell culture medium was changed from F12K medium containing 10% FBS to BEGM® medium, and the replacement of medium was not made.

[2] = system: human A549 cells; assay: Protective effect against cell injury induced by t-butyl hydroperoxide in human A549 cells; conditions: t-BuOOH in saline in each well
[3] = system: human A549 cells; assay: Protective effect against cell injury induced by oxidized LDL in human A549 cells (LDH leakage); conditions: for inhibition at 3 µM / inhibition at 30 µM: Homo sapiens, oxidized LDL 100 μg/mL, 24 hours, average ± standard error; for inhibition at 3 µM: 3 μmol/L test compound; for inhibition at 30 µM: 30 μmol/L test compound
Experimental: as §1
Human A549 cells used in this test are available under accession number ATCC-CCL-185 and have the properties of type II alveolar epithelial cells (Lieber M, Smith B, Szakal A, Nelson-Rees W, Todaro G., A continuous tumor-cell line from a human lung carcinoma with properties of type II alveolar epithelial cells. Int J Cancer Jan. 15, 1976; 17(1):62-70).
as §2, §3, §4, §5, §6
Probucol and α-tocopherol were tested for comparison with the compounds of the present invention. In this test, the test compounds were added to the cell culture after incubation for 6 hours following medium replacement and immediately before oxidized LDL was added.

[4] = read-out: % Cell protection in the case where oxidized LDL was added 6 hrs after adding test compound
[5] = read-out: % Cell protection in the case where oxidized LDL was added immediately after adding test compound

CCCCCC1(CCCCC)Cc2c(cc(C(C)(C)C)c(O)c2C(C)(C)C)O1 [Compound 3, 4,6-di-t-butyl-2,2-di-n-pentyl-5-hydroxy-2,3-dihydrobenzofuran]
inhibition at 3 µM [1, 4]: 49.8 ± 6.4% | inhibition at 3 µM [1, 5]: 9.8 ± 3.3% | inhibition at 30 µM [1, 4]: 70.8 ± 2% | inhibition at 30 µM [1, 5]: 66.2 ± 2.6% | inhibition of cell injury induced by t-butyl hydroperoxide (FIG. 2) [2]: inhibits cell injury | inhibition at 3 µM [3, 4]: 18.7 ± 2.1% | inhibition at 3 µM [3, 5]: 14.3 ± 2.3% | inhibition at 30 µM [3, 4]: 95 ± 2.5% | inhibition at 30 µM [3, 5]: 85.4 ± 1.6% | % cell protection as a function of test compound concentration (FIG. 1) ([3]; test compound added immediately before oxidized LDL, Test Example 2): begins to sharply increase when the concentration of Compound 3 exceeds about 10 μmol/L
